We go through one substance from article PMC11697113, “The Hsc70 system maintains the synaptic SNARE protein SNAP-25 in an assembly-competent state and delays its aggregation [drawing 1]” (The Journal of Biological Chemistry, 2024).

Data set [1] concerns SNAP-25. Put plainly: SNAP-25 aggregation kinetics by optical density. The class given is biochemical. The conditions noted are these: SNAP-25 (CS mutant) 50 μM alone, 37 °C, shaking 300 rpm, OD 360 nm, 20 mM phosphate buffer pH 7.4, 100 μM MgCl2, 100 mM KCl. The protocol:
To test our hypothesis that Hsc70 inhibits SNAP-25 aggregation, we monitored the aggregation kinetics of recombinantly expressed SNAP-25 in the absence and presence of Hsc70 by following optical density at 360 nm (Fig. 2). […] This lag time was elongated to ∼65 h in the presence of Hsc70. In neurons, Hsc70 works in collaboration with its co-chaperone CSPα. […] (Fig. S2A). Apg2 is a member of the Hsp110 family, which is known to suppress protein aggregation ([36]). […] (Fig. S2B).
Figure 2 Hsc70 delays the aggregation of SNAP-25. Aggregation kinetics of SNAP-25 (50 μM) at 37 °C. Optical density of SNAP-25 was recorded at 360 nm in the absence (black) and in the presence of Hsc70 (5 μM, red), and Hsc70+CSPαJ (5 μM each, blue).
Aggregation of SNAP-25 at 50 μM was followed by measuring the A360 in a 96-well plate using a BioTek plate reader (BioTek), at 37 °C with shaking at 300 rpm, in the absence and presence of Hsc70 and CSPαJ at 5 μM each, and Apg2 at 0.5 μM. The aggregation buffer included 20 mM phosphate buffer pH 7.4, 100 μM MgCl2, and 100 mM KCl, and an ATP-experiment was carried out using regeneration system (5 mM 2-phosphoenolpyruvate, 0.05 mg/ml pyruvate kinase, and 5 mM ATP), as described previously ([51]).
Figure SI 2. Apg2 enhances the effect of Hsc70 on SNAP-25. (A) Aggregation kinetics of SNAP-25 (50 μM) at 37 °C. OD600 of SNAP-25 was recorded in the absence (black) and in the presence of Hsc70, Hsc70+CSPa-J (blue) and Hsc70+CSPa-J+Apg2 (turquoise). […]
concentrations are SNAP-25 (50 μM), Hsc70 (5 μM), CSPa-J (5 μM) and Apg2 (0.5 μM).
(B) Aggregation kinetics of SNAP-25 (50 μM) at 37 °C. OD600 of SNAP-25 was recorded in the absence (black) and in the presence of Apg2 (blue). […]

The target in the next data set is T1, Hsc70 (Homo sapiens, UniProt P11142).
T1 construct: 6X His-tag (TEV-cleavable) (cleaved yes); made in house; host or cells: E. coli Rosetta (DE3)
Kind of data set: Native PAGE / Western blot of SNAP-25-Hsc70 complex. The class given is binding. Particulars: SNAP-25 10 μM, Hsc70 2 μM, anti-Hsc70 and anti-His Western blot. The protocol: Figure 3 Hsc70 forms complexes with SNAP-25.A, native PAGE of SNAP-25 (10 μM) in the presence and absence of Hsc70 (2 μM). The difference in signal intensity of His-SNAP25 probed with antibody is likely due to altered epitope exposure upon formation of the SNAP-25-Hsc70 complex. B, binding of SNAP-25 (black), SNAP-25 SNN (SNNFR, orange), and SNC (SNCFR, green)) fragments to Hsc70 by competition followed by fluorescence anisotropy. Increasing concentrations of the competitors were added to a complex of Hsc70 (5 μM) and FITC-p5 peptide (50 nM). Error bars represent SDs from three independent experiments.
Precast native PAGE gels (Bio-Rad, 4–20%) were used to separate proteins based on their conformation and charge. SNAP-25 (10 μM), Hsc70 (2 μM) and a mix of both samples were mixed with a nondenaturing loading buffer and directly loaded onto the gel without heating. Electrophoresis was carried out in Tris-glycine running buffer at 180V for approximately 1 h until the dye front reached the bottom of the gel. Gels were stained with Coomassie Brilliant Blue R-250 (Sigma-Aldrich) and destained in a methanol-acetic acid solution until clear bands were visible.

Data set [2] deals with SNAP-25. The conditions noted are these: also Fig. S1; cited from earlier work. An excerpt:
SNAP-25 has four native cysteines that are palmitoylated upon interaction with the membrane. […] For all of our studies, the SNAP-25 CS mutant was used unless otherwise mentioned. We assessed formation of the Hsc70-SNAP-25 complex by CD and found no significant conformational ...

T1 sequence (P11142 whole entry): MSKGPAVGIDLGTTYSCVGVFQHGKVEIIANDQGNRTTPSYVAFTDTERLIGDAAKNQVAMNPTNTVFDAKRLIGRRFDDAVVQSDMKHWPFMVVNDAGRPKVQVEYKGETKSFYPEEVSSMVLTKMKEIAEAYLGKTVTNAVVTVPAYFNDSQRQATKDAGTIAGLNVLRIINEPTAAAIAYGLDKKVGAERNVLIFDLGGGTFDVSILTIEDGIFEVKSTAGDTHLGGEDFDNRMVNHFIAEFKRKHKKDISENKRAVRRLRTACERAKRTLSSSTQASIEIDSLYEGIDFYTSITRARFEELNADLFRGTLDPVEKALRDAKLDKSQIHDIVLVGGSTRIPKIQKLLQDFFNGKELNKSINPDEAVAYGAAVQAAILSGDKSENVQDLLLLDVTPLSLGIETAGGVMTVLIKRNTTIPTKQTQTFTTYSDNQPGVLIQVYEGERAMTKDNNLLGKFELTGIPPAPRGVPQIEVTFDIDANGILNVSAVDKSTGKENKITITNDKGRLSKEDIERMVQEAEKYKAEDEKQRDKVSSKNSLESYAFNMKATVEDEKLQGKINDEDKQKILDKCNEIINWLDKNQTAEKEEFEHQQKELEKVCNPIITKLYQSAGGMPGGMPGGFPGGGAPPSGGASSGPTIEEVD

As to “synaptosomal-associated 25 kDa protein [SNAP-25]”, the “lag phase of SNAP-25 aggregation” value with SNAP-25 [1] was roughly 38 h. Further, at Hsc70, the “complex formation of His-SNAP-25 with Hsc70” value is reported as “a complex can be seen”. For the same substance, the “secondary structure by CD” value with SNAP-25 [2] is on record as “disordered with nascent helical tendencies”.
